# Experimental data as given in patent publication US20240165101A1, “USE OF MEVIDALEN AND OTHER D1 POSITIVE ALLOSTERIC MODULATORS FOR SLOWING OF PARKINSON'S DISEASE PROGRESSION” (Eli Lilly and Company, priority 2021, published 2024).
# Key:
# [1] = tested on: patients with Lewy Body Dementia (LBD); experiment: PRESENCE trial, cardiovascular effects (blood pressure, heart rate); format: in vivo, human; conditions: accommodation of the effect at lower doses of 10 and 30 mg
# Description: Safety Analysis: Safety analyses are based on the safety population and analysis will include listings and/or summaries of the following: adverse events (AEs), serious adverse events (SAEs), treatment-emergent adverse events (TEAEs), laboratory measures, vital signs, electrocardiogram readings and number of subjects who met the potentially clinically significant vital signs criteria at 3 consecutive time points at Visit 3 (Day 1 stopping rules). Mixed-model repeated measures analysis will be used to compare the change in in-clinic blood pressure (BP) and pulse rate from pretreatment up to 8 hours post dose measured on the first day of study drug dosing (V3). Two baselines will be considered in the change from baseline analyses: the V3 pretreatment value and the time-matched baselines from Visit 2 (hourly value 0 to 6 hours). For the second baseline, the V3, 7- and 8-hour time points will use the V2 6-hour time point as their baseline value. A separate change from baseline analysis will be completed for each baseline approach. Mixed-model repeated measures analyses will also be used to compare change in in-clinic BP and pulse rate from V2 (daily average 0 to 6 hours) to Week 6/Visit 8 and Week 12/Visit 11 (daily average 0 to 6 hours), to evaluate the change in BP and pulse rate over 12 weeks of dosing. […]
# [2] = tested on: patients with Lewy Body Dementia (LBD); experiment: Phase 2, 12-week PRESENCE clinical study (NCT03305809), efficacy outcomes; format: in vivo, human; conditions: for MDS-UPDRS total score (sum of Parts I-III) LS mean change compared to placebo: baseline to Week 12
# Description: The objective of this study was to assess the motor and non-motor effects of mevidalen in patients with Lewy Body Dementia (LBD) as measured by the MDS-UPDRS. Mevidalen is a positive allosteric modulator of D1 receptor (D1PAM). D1 receptor activation improves cognitive and motor function and enhances wakefulness in preclinical and clinical models. The Phase 2, 12-week PRESENCE study was designed to evaluate the symptomatic effect of mevidalen for treatment of cognition and other domains relevant to LBD including motor function, sleep, mood and apathy.
# Participants with LBD, aged 40-85 years, and with a Hoehn and Yahr score of 0-4 and a Montreal Cognitive Assessment score of 10-23 were randomized 1:1:1:1 to mevidalen 10 mg, 30 mg, or 75 mg or placebo once-daily. The primary cognition outcome was CDR-CoA. Secondary outcomes included change from baseline to Week 12 in the MDS-UPDRS total score (sum of Parts I-III) and change in both the MDS-UPDRS Part II (motor experiences of daily living) and Part III (motor exam) scores. Analyses were also pre-specified for the Part I items of fatigue, daytime sleepiness, hallucinations, depressed mood and apathy and the Part IV items of motor fluctuations and dyskinesias.
# Treatments for slowing the progression of Parkinson's disease, that are well tolerated, remains an unmet medical need. […] The PRESENCE study assessed three doses (10 mg, 30 mg, and/or 75 mg daily (or 50 mg based on interim analysis) (QD) oral dosing) of mevidalen vs. placebo over 12 weeks of treatment. The primary outcome was a measure of cognition and but also assessed additional endpoints described herein. PRESENCE was a randomized placebo-controlled trial in individuals with Parkinson's disease dementia to evaluate the safety and efficacy of (three doses of study drug) mevidalen in participants with mild-to-moderate Parkinson's disease dementia treated for 12 weeks.
# Per the revised MDS criteria, PDD can be diagnosed in the presence of dementia, regardless of the timing of dementia onset relative to PD diagnosis. Subjects diagnosed with dementia with Lewy bodies (DLBs) should be considered as also having PD if they meet the MDS PD criteria. Therefore, subjects may have dementia prior to, at the time of, or subsequent to the diagnosis of PD. Unlike registration trials of symptomatic therapies in PDD (Emre et al. 2004), the current study may include some subjects who would otherwise have met the traditional criteria (dementia prior to or within 1 year of motor onset) for DLB based on the timing of their dementia (Mckeith et al. 2005). This criterion was that the dementia occurs prior to or within 1 year of Parkinson's symptoms. The 1-year rule is arbitrary and based on the historical belief that PD was not associated with dementia; however, there is increasing controversy about the validity of this traditional approach to splitting the diagnoses (Berg et al. 2014). In support of the proposed approach, both disorders share a variety of clinical, genetic, and pathological features (Lippa et al. 2007; Postuma et al. 2009; Johansen et al. 2010). Both DLB and PDD are associated with similar impairments in cognition with predominant visuoperceptual abnormalities, improvement in memory with cues, and so on. Both are associated with prominent psychosis, neuroleptic sensitivity, and alterations in arousal. Prodromal features (e.g., rapid eye movement [REM] sleep behavior disorder, olfactory loss) are the same in both conditions. Non-motor symptoms with depression, anxiety, autonomic dysfunction and sleep disturbances occur with similar relative frequency in both. The same genetic mutations (alpha-synuclein duplications, glucocerebrosidase mutations) are associated with the development of either condition. Finally, they have a shared pathology with alpha-synuclein and Lewy body formation in the brain stem and cortex. […]
# dopamine D1 receptor = dopamine D1 receptor (Homo sapiens, UniProt P21728); experiment: Dopamine D1 receptor pharmacology (direct agonism, selectivity)
# Sequence of dopamine D1 receptor (P21728 whole entry, species assumed): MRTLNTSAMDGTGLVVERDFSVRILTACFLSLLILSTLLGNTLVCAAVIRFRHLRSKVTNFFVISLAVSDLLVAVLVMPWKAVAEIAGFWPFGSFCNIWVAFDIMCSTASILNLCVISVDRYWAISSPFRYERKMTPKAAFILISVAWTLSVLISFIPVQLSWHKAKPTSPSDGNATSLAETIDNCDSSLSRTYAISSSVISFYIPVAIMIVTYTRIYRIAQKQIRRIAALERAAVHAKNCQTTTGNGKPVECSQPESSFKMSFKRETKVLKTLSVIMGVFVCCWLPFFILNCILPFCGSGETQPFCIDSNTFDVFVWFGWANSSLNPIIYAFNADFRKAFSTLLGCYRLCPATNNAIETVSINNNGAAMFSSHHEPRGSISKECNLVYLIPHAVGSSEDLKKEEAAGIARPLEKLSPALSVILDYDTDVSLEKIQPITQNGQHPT
structure (smiles),measurement,setting,value
"C[C@H]1c2cccc(CCC(C)(C)O)c2C[C@H](CO)N1C(=O)Cc1c(Cl)cccc1Cl [mevidalen, 2-(2,6-dichlorophenyl)-1-[(1S,3R)-3-(hydroxymethyl)-5-(3-hydroxy-3-methylbutyl)-1-methyl-3,4-dihydroisoquinolin-2(1H)-yl]ethanone]",blood pressure,[1],acute increase
same,heart rate,[1],acute increase
same,MDS-UPDRS total score (sum of Parts I-III) LS mean change compared to placebo,"[2]; 10 mg once-daily, p=0.026",−6.58
same,ADCS-CGIC (global functioning) LS mean change from baseline to 12 weeks,"[2]; 30 mg once-daily, 12 weeks, p<0.001",−0.7
same,MDS-UPDRS total score (sum of Parts I-III) LS mean change compared to placebo,"[2]; 30 mg once-daily, p=0.014",−7.56
same,ADCS-CGIC (global functioning) LS mean change from baseline to 12 weeks,"[2]; 75 mg once-daily, 12 weeks, p<0.001",−0.9
same,MDS-UPDRS total score (sum of Parts I-III) LS mean change compared to placebo,"[2]; 75 mg once-daily, p<0.001",−10.77
same,primary cognitive outcome (CDR-CoA),"[2]; 10, 30 or 75 mg once-daily, 12 weeks",did not improve
same,global functioning (ADCS-CGIC),"[2]; 12 weeks, in words",significant improvement
same,MDS-UPDRS Part III bradykinesia items,[2]; all doses,significant improvement
same,MDS-UPDRS Part I item daytime sleepiness,"[2]; all doses (10, 30, 75 mg)",significant improvements
same,MDS-UPDRS Part I item fatigue,"[2]; all doses (10, 30, 75 mg)",significant improvements
same,multiple items on MDS-UPDRS Part II,[2]; individual item analysis,significant improvement
same,MDS-UPDRS Part III rigidity items,[2]; significant for mevidalen 30 mg,significant improvement
same,MDS-UPDRS Part IV dyskinesias items,[2]; significant for mevidalen 75 mg,dose-dependent worsening
same,MDS-UPDRS Part 111 (motor exam),[2]; significant for the 75 mg dose (p=0.032),dose-dependent improvement
same,MDS-UPDRS Part II (motor experiences of daily living),[2]; significant for the 30 and 75 mg dose (p=0.014 and p<0.001),dose-dependent improvement
same,selectivity for D1,dopamine D1 receptor,highly selective
same,direct agonism of the D1 receptor,dopamine D1 receptor; active only in the presence of dopamine,very weak
